Laboratory results reported in patent US20040121474A1, “Detection and evaluation of chemically-mediated and ligand-mediated t-cell activation using optophoretic analysis” (Genoptix, Inc, priority 2002, published 2004).

Experiments:
Format in all cases: cell-based
U937 cells = assay: Escape velocity, PMA inhibition by bisindolymaleimide; details: 10 ng/ml PMA only, four hours
Text: The objective of this experiment was to test the effect of bisindolymaleimide on cells exposed to PMA. Bisindolymaleimide is a Protein Kinase C inhibitor and should block the effect of PMA on U937 cells and their escape velocities. As shown in this and prior experiments, exposure of U937 cells to PMA results in an increase in the escape velocity of the cells. Therefore, it is anticipated that addition of bisindolymaleimide will reduce or eliminate the increase in escape velocity caused by PMA. This has in fact been observed in the data shown below.
Bisindolymaleimide was tested at two concentrations: 200 ng/ml and 50 ng/ml. Samples not treated with bisindolymaleimide received an equivalent amount of the carrier, MeOH, as a control. […] The concentration of PMA tested was 10 ng/ml. Samples not receiving PMA received DMSO.
Once the flasks were prepared, they were incubated at 37° C. 5% CO2 for four hours. At the four hour timepoint, 300 μl of cells were removed from each flask and pelleted at 5000 rpm for 5 minutes. The cells were then resuspended in 6 ml PBS/1% BSA and 60 μl trypan blue.

HL-60 cells = assay: Fast scan analysis, differentiation of HL-60 cells; details: 400 ng/ml PMA, differentiation into monocytes/macrophages
Method: (§1) Fast scan analysis was also performed on HL-60 cells that were treated with PMA and DMSO. A time course evaluation of PMA treated HL-60 cells was performed with fast scan data taken at 16 hours, 24 hours, 40 hours, and 72 hours post-treatment with 400 ng/ml PMA. A control sample of HL-60 cells was also tested using EtOH as the vehicle for purposes of comparing the differentiated cells with the undifferentiated HL-60 cells. The PMA-treated and control cells were harvested and trypsinized. The samples were then resuspended in PBS/1% BSA. A set of samples was also obtained and left as pellets at 4° C. for subsequent FACS analysis.
A time course evaluation of DMSO treated HL-60 cells was performed with fast scan data taken at 16 hours, 24 hours, 40 hours, and 70 hours post-treatment with 1% DMSO. A control sample of HL-60 cells was also tested for purposes of comparing the differentiated cells with the undifferentiated HL-60 cells. The DMSO-treated and control cells were then harvested and resuspended in PBS/1% BSA. A set of samples was also obtained and left as pellets at 4° C. for subsequent FACS analysis.

[1] = tested on: CD11b expression in HL-60 cells; assay: FACS CD11b expression profile; details: 400 ng/ml PMA
Method: as §1
FIG. 145 illustrates a histogram of the travel distance of the control cells as well as the PMA-treated cells at 16 hours, 24 hours, 40 hours, and 72 hours post-treatment. FIG. 146 illustrates the mean travel distances of the control cells as well as the PMA-treated cells at 16 hours, 24 hours, 40 hours, and 72 hours post-treatment. FIG. 147 illustrates the FACS CD11b expression profile in PMA-treated HL-60 cells as well as the control. CD11b is a known marker of cellular differentiation and is expressed on the surface of differentiating cells. […] The data illustrate that Optophoretic analysis can be used as an assay for the detection and quantification of cellular differentiation. […]

CCCCCCCCCCCCCC(=O)O[C@@H]1[C@@H](C)[C@@]2(O)[C@@H](C=C(CO)C[C@]3(O)C(=O)C(C)=C[C@@H]23)[C@@H]2C(C)(C)[C@]12OC(C)=O [PMA, phorbol 12 myristate 13-acetate] was tested, and the “Escape velocity Ave.” value (U937 cells) was 15.4 μm/sec, the “time after treatment at which Optophoretic analysis detected cellular differentiation” value (HL-60 cells) was no more than 16 h and the “time after treatment at which a noticeable change in CD11b expression levels was observed” value [1] was “about 40 hours”.
